In the CheMixHub viscosity set:

Test: xn = mol fraction of the nth substance listed

CC(CC(C)(C)C)CP(=O)(O)CC(C)CC(C)(C)C (centres undefined) + C1CCCCC1
298.15 K, 101 kPa
Details	viscosity [mPa·s]
x1 = 0.007	0.95
x1 = 0.0117	0.998
x1 = 0.015	1.052
x2 = 0.1098	97.92
x2 = 0.1822	85
x2 = 0.3325	59.34
x2 = 0.505	32.7
x2 = 0.6519	16.56
x2 = 0.7568	8.757
x2 = 0.7617	8.623
x2 = 0.851	4.302
x2 = 0.8636	3.779
x2 = 0.8895	3.032
x2 = 0.9226	2.188
x2 = 0.9255	2.102
x2 = 0.9573	1.489
x2 = 0.9686	1.301

CCOCCO + C1CCCCC1
viscosity [mPa·s]
Details	298.15 K	303.15 K	308.15 K	313.15 K
101 kPa, x1 = 0.0542	0.903	–	0.755	–
101 kPa, x1 = 0.1507	0.92	–	0.775	–
101 kPa, x1 = 0.2541	0.952	–	0.805	–
101 kPa, x1 = 0.3508	0.996	–	0.841	–
101 kPa, x1 = 0.452	1.057	–	0.888	–
101 kPa, x1 = 0.5	1.093	–	0.915	–
101 kPa, x1 = 0.5497	1.135	–	0.945	–
101 kPa, x1 = 0.6534	1.24	–	1.019	–
101 kPa, x1 = 0.7527	1.368	–	1.105	–
101 kPa, x1 = 0.8492	1.524	–	1.206	–
101 kPa, x1 = 0.9552	1.741	–	1.341	–
101.33 kPa, x1 = 0.0993	0.864	0.787	0.724	0.663
101.33 kPa, x1 = 0.2013	0.91	0.827	0.755	0.696
101.33 kPa, x1 = 0.2968	0.961	0.875	0.798	0.731
101.33 kPa, x1 = 0.4007	1.035	0.938	0.852	0.786
101.33 kPa, x1 = 0.495	1.112	1.004	0.884	0.837
101.33 kPa, x1 = 0.5998	1.211	1.093	0.992	0.899
101.33 kPa, x1 = 0.6974	1.341	1.2	1.085	0.977
101.33 kPa, x1 = 0.808	1.496	1.341	1.206	1.094
101.33 kPa, x1 = 0.9006	1.714	1.527	1.371	1.231

CCOCCO + C1CCOC1
viscosity [mPa·s], 101.33 kPa
Details	x1 = 0.1003	x1 = 0.2025	x1 = 0.3008	x1 = 0.403	x1 = 0.5069	x1 = 0.6012	x1 = 0.7048	x1 = 0.7983	x1 = 0.8839
298.15 K	0.593	0.677	0.787	0.908	1.057	1.232	1.503	1.701	1.898
303.15 K	0.502	0.571	0.66	0.756	0.874	1.011	1.223	1.381	1.546
308.15 K	0.475	0.539	0.618	0.702	0.808	0.93	1.091	1.242	1.385

CC(C)CCO + C1COCCO1
viscosity [mPa·s], 101 kPa
Details	x1 = 0.1	x1 = 0.2067	x1 = 0.3006	x1 = 0.4011	x1 = 0.5011	x1 = 0.609	x1 = 0.7009	x1 = 0.8003	x1 = 0.908
298.15 K	1.135	1.151	1.189	1.261	1.37	1.519	1.737	2.122	2.79
303.15 K	1.049	1.068	1.116	1.177	1.265	1.388	1.562	1.87	2.429
308.15 K	0.9581	0.9865	1.039	1.097	1.156	1.243	1.359	1.615	2.081

CCOCCO + C1COCCO1
viscosity [mPa·s], 101.33 kPa
Details	x1 = 0.1009	x1 = 0.2023	x1 = 0.3051	x1 = 0.4014	x1 = 0.499	x1 = 0.602	x1 = 0.7004	x1 = 0.8031	x1 = 0.8976
298.15 K	1.293	1.299	1.324	1.367	1.424	1.511	1.6	1.733	1.844
303.15 K	1.069	1.066	1.085	1.119	1.162	1.228	1.299	1.4	1.487
308.15 K	0.982	0.992	1	1.028	1.07	1.12	1.183	1.268	1.344

CC(C)CCO + C1COCO1
viscosity [mPa·s], 101 kPa
Details	x2 = 0.1168	x2 = 0.2293	x2 = 0.3377	x2 = 0.4424	x2 = 0.5434	x2 = 0.6409	x2 = 0.7352	x2 = 0.8264	x2 = 0.9146
298.15 K	3.017	2.523	2.174	1.884	1.366	0.9079	0.8074	0.7367	0.6474
303.15 K	2.3	1.806	1.458	1.167	0.9949	0.8818	0.7812	0.7104	0.6212

CCOCCO + C1COCO1
298.15 K, 101 kPa
Details	viscosity [mPa·s]
x2 = 0.1191	1.605
x2 = 0.2332	1.379
x2 = 0.3427	1.187
x2 = 0.4478	1.03
x2 = 0.5488	0.9124
x2 = 0.646	0.8144
x2 = 0.7395	0.7365
x2 = 0.8295	0.6706
x2 = 0.9163	0.6129

CCOCCO + C=C(C)C(=O)OC
viscosity [mPa·s], 101.3 kPa
Details	298.15 K	308.15 K
x2 = 0.0533	1.64	1.305
x2 = 0.154	1.402	1.146
x2 = 0.2467	1.225	1.022
x2 = 0.3554	1.059	0.9
x2 = 0.4551	0.937	0.807
x2 = 0.4993	0.89	0.77
x2 = 0.5543	0.838	0.727
x2 = 0.6547	0.758	0.658
x2 = 0.7547	0.693	0.6
x2 = 0.8858	0.628	0.537
x2 = 0.9532	0.603	0.517

CCOCCO + CC#N
viscosity [mPa·s], 101.33 kPa
Details	x1 = 0.1016	x1 = 0.2016	x1 = 0.2865	x1 = 0.4004	x1 = 0.5026	x1 = 0.6026	x1 = 0.7122	x1 = 0.7978	x1 = 0.8997
298.15 K	0.458	0.546	0.638	0.79	0.946	1.128	1.346	1.524	1.786
303.15 K	0.389	0.461	0.535	0.655	0.781	0.921	1.075	1.236	1.435
308.15 K	0.37	0.435	0.501	0.608	0.721	0.845	0.978	1.122	1.295

Cn1cc[n+](CCCC#N)c1.O=S(=O)([O-])C(F)(F)F + CC#N
Details	viscosity [mPa·s]
298.15 K, 101 kPa, x1 = 0.7996	306.5

CNC(C)=O + CC(=O)c1ccccc1
308.15 K, 101 kPa
Details	viscosity [mPa·s]
x2 = 0.0686	3.109
x2 = 0.138	2.919
x2 = 0.2189	2.657
x2 = 0.3143	2.397
x2 = 0.3938	2.199
x2 = 0.4912	1.965
x2 = 0.6042	1.747
x2 = 0.7227	1.561
x2 = 0.8517	1.455

CNC(C)=O + CC(C)(C)O
303.15 K, 101 kPa
Details	viscosity [mPa·s]
x1 = 0.0809	4.253
x1 = 0.1017	4.365
x1 = 0.2071	4.448
x1 = 0.3102	4.22
x1 = 0.4103	4.026
x1 = 0.5002	3.864
x1 = 0.6021	3.776
x1 = 0.7095	3.752
x1 = 0.8039	3.747
x1 = 0.9007	3.778

CC(C)CCO + CC(C)CC(C)(C)C
298.15 K, 101 kPa
Details	viscosity [mPa·s]
x2 = 0.0685	3.063
x2 = 0.1336	2.496
x2 = 0.1409	2.428
x2 = 0.2215	1.908
x2 = 0.2866	1.576
x2 = 0.311	1.471
x2 = 0.352	1.326
x2 = 0.4007	1.178
x2 = 0.4038	1.175
x2 = 0.4505	1.051
x2 = 0.4937	0.967
x2 = 0.5321	0.896
x2 = 0.6132	0.772
x2 = 0.6488	0.723
x2 = 0.7255	0.642
x2 = 0.782	0.595
x2 = 0.818	0.564
x2 = 0.857	0.544
x2 = 0.9105	0.512
x2 = 0.9545	0.494

CCOCCO + CC(C)CC(C)(C)C
viscosity [mPa·s], 101.33 kPa
Details	x1 = 0.0991	x1 = 0.1991	x1 = 0.2975	x1 = 0.4347	x1 = 0.4972	x1 = 0.6001	x1 = 0.6976	x1 = 0.7979	x1 = 0.8986
298.15 K	0.494	0.536	0.595	0.692	0.753	0.862	1.006	1.179	1.436
303.15 K	0.466	0.5	0.552	0.648	0.694	0.797	0.913	1.086	1.292
308.15 K	0.439	0.475	0.517	0.601	0.642	0.738	0.839	0.993	1.167
313.15 K	0.415	0.445	0.483	0.56	0.597	0.677	0.767	0.901	1.066

CC(C)CCO + CC(C)CO
viscosity [mPa·s], 101 kPa
Details	x1 = 0.2	x1 = 0.4	x1 = 0.6	x1 = 0.8
293.15 K	4.048	4.099	4.163	4.241
313.15 K	2.178	2.22	2.27	2.326

CC(C)CCO + CC(C)O
298.15 K, 101 kPa
Details	viscosity [mPa·s]
x1 = 0.0665	2.158
x1 = 0.095	2.195
x1 = 0.1475	2.277
x1 = 0.1504	2.279
x1 = 0.2352	2.411
x1 = 0.2364	2.41
x1 = 0.3228	2.562
x1 = 0.3304	2.572
x1 = 0.4092	2.707
x1 = 0.4193	2.736
x1 = 0.5069	2.896
x1 = 0.5352	2.948
x1 = 0.6126	3.093
x1 = 0.6388	3.125
x1 = 0.7326	3.271
x1 = 0.7853	3.365
x1 = 0.8525	3.477
x1 = 0.9466	3.651
